Like-named read-outs stand apart in the source and are kept apart here.
Key:
[1] = biological target: T1, JAK3: Recombinant human kinase domain (Homo sapiens, UniProt P52333); experiment: Determination of IC50 of Janus Kinase (JAK) inhibition, radioactive end-point 33P-ATP assay, JAK3; type: biochemical; details: ATP 1.5 uM, peptide 50 uM, 20 minutes, read-out: JAK3-INHIB-DR/v1~NO ADDITIVE~Enzyme_Conc = 100
T1 construct: JAK3: Recombinant human kinase domain from Millipore (Cat #14-629) or prepared; purchased Millipore 14-629
Experimental: Determination of IC50 of Janus Kinase (JAK) Inhibition:
Assay conditions used are described below: • Assay Buffer: JAK Kinase Buffer: 50 mM Hepes [pH 7.2], 10 mM MgCl2, 1 mM DTT, 1 mg/ml BSA. The assay was carried out in this buffer. • Assay Format The kinase activity of all three JAK kinases was measured using a radioactive, end-point assay and with trace amounts of ^33P-ATP. The assays were carried out in 96-well polypropylene plates. Experimental Method:
All concentrations were final in the reaction mixture and all incubations were carried at room temperature. […] Final concentration of DMSO in the reaction was 10%. • 2) Compounds were preincubated with enzyme (0.5 nM JAK3 (commercially available), 0.2 nM JAK3 (prepared), 1 nM JAK2, 5 nM JAK1) for 10 minutes. • 3) Reactions were initiated by the addition of a cocktail of the two substrates (ATP and peptide premixed in the JAK Kinase Buffer). […] JAK1 assay was carried out at an ATP concentration of 10 uM and a peptide concentration of 50 uM. • 4) The duration of the assay for JAK2 and JAK3 is 20 minutes. JAK1 assay was carried out for 40 minutes. With all three enzymes, reactions were terminated by the addition of 0.5M EDTA to a final concentration of 100 mM. • 5) 25 ul of terminated reactions were transferred to 150 ul of a 7.5% (v/v) slurry of streptavidin-coated sepharose beads in MgCl2- and CaCl2-free 1× Phosphate Buffered Saline containing 50 mM of EDTA in 96-well, 1.2 um MultiScreen-BV filter plates. • 6) After a 30-minute incubation, the beads were washed under vacuum with the following buffers: • a. 3 to 4 washes with 200 ul of 2M NaCl. • b. 3 to 4 washes with 200 ul of 2M NaCl plus 1% (v/v) phosphoric acid. • c. 1 wash with water. • 7) Washed plates were dried in a 60° C. oven for between 1 to 2 hours. • 8) 70 ul of Microscint 20 scintillation fluid was added to each well of filter plates and after at least 30 minutes of incubation, radioactive counts were measured in a Perkinelmer microplate scintillation counter.

[2] = biological target: T2, recombinant human SYK360-635 (Homo sapiens, UniProt P43405); experiment: Determination of IC50 of Spleen Tyrosine Kinase (SYK) inhibition, 33P ATP filtration assay; type: biochemical; details: SYK aa 360-635 0.5 nM, ATP 20 μM, peptide 5 μM, 0.1% BSA
T2 construct: made in house

[3] = read-out: SYK_ENZYME_FILTRATION/v1, BSA

T1 sequence (P52333 822-1111 limits assumed): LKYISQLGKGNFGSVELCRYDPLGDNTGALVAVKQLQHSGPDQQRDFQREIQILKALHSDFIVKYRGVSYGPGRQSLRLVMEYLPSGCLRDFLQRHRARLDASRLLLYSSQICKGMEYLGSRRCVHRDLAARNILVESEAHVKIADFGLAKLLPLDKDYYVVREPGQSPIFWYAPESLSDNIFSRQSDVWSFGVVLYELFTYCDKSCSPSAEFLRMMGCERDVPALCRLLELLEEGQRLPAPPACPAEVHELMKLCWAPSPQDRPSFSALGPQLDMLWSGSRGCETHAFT

Structure (SMILES) | IC50 [2, 3] | other results
C[C@@H](NC(=O)c1c[nH]c2ncc(-c3nn(CCN(C)C)c4cc(Cl)ccc34)nc12)C(=O)N1CC(C#N)C1 [Example I-229, 2-[6-Chloro-1-(2-dimethylamino-ethyl)-1H-indazol-3-yl]-5H-pyrrolo[2,3-b]pyrazine-7-carboxylic acid [(R)-2-(3-cyano-azetidin-1-yl)-1-methyl-2-oxo-ethyl]-amide] |  | IC50 [1]: 3.34 nM
CC(NC(=O)c1c[nH]c2ncc(-c3nn(C)c4cc(F)ccc34)nc12)c1ncco1 (stereo not shown) [Example I-49, 2-(6-Fluoro-1-methyl-1H-indazol-3-yl)-5H-pyrrolo[2,3-b]pyrazine-7-carboxylic acid (1-oxazol-2-yl-ethyl)-amide] |  | IC50 [1]: 5.66 nM
C[C@@H](NC(=O)c1c[nH]c2ncc(-c3nn(C)c4c3CCCC4)nc12)C(=O)N1CC(C#N)C1 [Example I-26, 2-(1-Methyl-4,5,6,7-tetrahydro-1H-indazol-3-yl)-5H-pyrrolo[2,3-b]pyrazine-7-carboxylic acid [(R)-2-(3-cyano-azetidin-1-yl)-1-methyl-2-oxo-ethyl]-amide] |  | IC50 [1]: 5.7 nM
CC(C)(CO)NC(=O)c1c[nH]c2ncc(-n3nc(C4CCNCC4)c4ccccc43)nc12 [Example I-347, 2-(3-Piperidin-4-yl-indazol-1-yl)-5H-pyrrolo[2,3-b]pyrazine-7-carboxylic acid (2-hydroxy-1,1-dimethyl-ethyl)-amide] |  | IC50 ([2]; SYK_ENZYME_FILTRATION/v1, BSA): 14.3 nM
COCC(COC)NC(=O)c1c[nH]c2ncc(-c3nn(C)c4cc(Cl)ccc34)nc12 [Example I-166, 2-(6-Chloro-1-methyl-1H-indazol-3-yl)-5H-pyrrolo[2,3-b]pyrazine-7-carboxylic acid (2-methoxy-1-methoxymethyl-ethyl)-amide] | 106 nM | 
Cc1cc2cccc(-c3cnc4[nH]cc(C(=O)NC(C)(C)C)c4n3)c2[nH]1 [Example I-303, 2-(2-Methyl-1H-indol-7-yl)-5H-pyrrolo[2,3-b]pyrazine-7-carboxylic acid tert-butylamide] | 64.1 nM | 
CC(C)NC(=O)c1c[nH]c2ncc(-c3nn(C)c4ccc(C5CC5)cc34)nc12 [Example I-195, 2-(5-Cyclopropyl-1-methyl-1H-indazol-3-yl)-5H-pyrrolo[2,3-b]pyrazine-7-carboxylic acid isopropylamide] | 12 nM | 
Cc1ccc2c(-c3cnc4[nH]cc(C(=O)NC(C)(C)CO)c4n3)nn(CCCN3CCOCC3)c2c1 [Example I-438, 2-[6-Methyl-1-(3-morpholin-4-yl-propyl)-1H-indazol-3-yl]-5H-pyrrolo[2,3-b]pyrazine-7-carboxylic acid (2-hydroxy-1,1-dimethyl-ethyl)-amide] | 27.4 nM | 
Cn1nc(-c2cnc3[nH]cc(C(=O)NC(C)(C)CN)c3n2)c2ccc(Cl)cc21 [Example I-397, 2-(6-Chloro-1-methyl-1H-indazol-3-yl)-5H-pyrrolo[2,3-b]pyrazine-7-carboxylic acid (2-amino-1,1-dimethyl-ethyl)-amide] | 219 nM | 
CC(C)(C)NC(=O)c1c[nH]c2ncc(-c3nn(CCCN4CC(O)C4)c4ccc(OC(F)F)cc34)nc12 [Example I-300, 2-{5-Difluoromethoxy-1-[3-(3-hydroxy-azetidin-1-yl)-propyl]-1H-indazol-3-yl}-5H-pyrrolo[2,3-b]pyrazine-7-carboxylic acid tert-butylamide] | 3.1 nM | 
CC(C)(C)NC(=O)c1c[nH]c2ncc(-c3nn(CCCC(=O)O)c4ccc(OC(F)F)cc34)nc12 [Example I-262, 4-[3-(7-tert-Butylcarbamoyl-5H-pyrrolo[2,3-b]pyrazin-2-yl)-5-difluoromethoxy-indazol-1-yl]-butyric acid] | 2.75 nM | 
CC(C)(C)NC(=O)c1c[nH]c2ncc(-c3nn(CC4CCNC4)c4ccc(OC(F)F)cc34)nc12 (stereo not shown) [Example I-265, 2-(5-Difluoromethoxy-1-pyrrolidin-3-ylmethyl-1H-indazol-3-yl)-5H-pyrrolo[2,3-b]pyrazine-7-carboxylic acid tert-butylamide] | 8.62 nM | 
Cn1nc(-c2cnc3[nH]cc(C(=O)NC(C)(C)C)c3n2)c2ccc(S(C)(=O)=O)cc21 [Example I-270, 2-(6-Methanesulfonyl-1-methyl-1H-indazol-3-yl)-5H-pyrrolo[2,3-b]pyrazine-7-carboxylic acid tert-butylamide] | 16.4 nM | 
COc1ccc2c(c1)c(-c1cnc3[nH]cc(C(=O)N[C@@H]4CCCC[C@@H]4N)c3n1)nn2C [Example I-291, 2-(5-Methoxy-1-methyl-1H-indazol-3-yl)-5H-pyrrolo[2,3-b]pyrazine-7-carboxylic acid ((1R,2S)-2-amino-cyclohexyl)-amide] | 1000 nM | 
C[C@H](NC(=O)c1c[nH]c2ncc(-c3nn(C)c4cc(F)ccc34)nc12)c1ncc(C(F)(F)F)[nH]1 [Example I-358, 2-(6-Fluoro-1-methyl-1H-indazol-3-yl)-5H-pyrrolo[2,3-b]pyrazine-7-carboxylic acid [(S)-1-(5-trifluoromethyl-1H-imidazol-2-yl)-ethyl]-amide] | 107 nM | 
Cn1nc(-c2cnc3[nH]cc(C(=O)NC(C)(C)C)c3n2)c2c1CCCC2 [Example I-295, 2-(1-Methyl-4,5,6,7-tetrahydro-1H-indazol-3-yl)-5H-pyrrolo[2,3-b]pyrazine-7-carboxylic acid tert-butylamide] | 12.6 nM | 

Structure (SMILES) | IC50 [2, 3] | other results
Cn1nc(-c2cnc3[nH]cc(C(=O)N[C@@H]4CCC[C@H](N)C4)c3n2)c2ccc(Cl)cc21 (relative stereo) [Example I-277, 2-(6-Chloro-1-methyl-1H-indazol-3-yl)-5H-pyrrolo[2,3-b]pyrazine-7-carboxylic acid (cis-3-amino-cyclohexyl)-amide] | 40 nM | 
CC(C)NC(=O)c1c[nH]c2ncc(-c3n[nH]c4cc(Cl)ccc34)nc12 [Example I-306, 2-(6-Chloro-1H-indazol-3-yl)-5H-pyrrolo[2,3-b]pyrazine-7-carboxylic acid isopropylamide] | 7.25 nM | 
Cc1ccc2c(-c3cnc4[nH]cc(C(=O)NC(C)(C)CN)c4n3)n[nH]c2c1 [Example I-435, 2-(6-Methyl-1H-indazol-3-yl)-5H-pyrrolo[2,3-b]pyrazine-7-carboxylic acid (2-amino-1,1-dimethyl-ethyl)-amide] | 16.7 nM | 
Cn1nc(-c2cnc3[nH]cc(C(=O)NC4(C)CCCC4)c3n2)c2ccc(F)cc21 [Example I-384, 2-(6-Fluoro-1-methyl-1H-indazol-3-yl)-5H-pyrrolo[2,3-b]pyrazine-7-carboxylic acid (1-methyl-cyclopentyl)-amide] | 3.75 nM | 
CNCCCn1nc(-c2cnc3[nH]cc(C(=O)NC(C)(C)C)c3n2)c2cc(OC(F)F)ccc21 [Example I-345, 2-[5-Difluoromethoxy-1-(3-methylamino-propyl)-1H-indazol-3-yl]-5H-pyrrolo[2,3-b]pyrazine-7-carboxylic acid tert-butylamide] | 5.12 nM | 
C[C@@H](CO)NC(=O)c1c[nH]c2ncc(-c3n[nH]c4cc(Cl)ccc34)nc12 [Example I-419, 2-(6-Chloro-1H-indazol-3-yl)-5H-pyrrolo[2,3-b]pyrazine-7-carboxylic acid ((S)-2-hydroxy-1-methyl-ethyl)-amide] | 6.9 nM | 
Cn1nc(-c2cnc3[nH]cc(C(=O)Nc4cccnc4)c3n2)c2ccc(Cl)cc21 [Example I-405, 2-(6-Chloro-1-methyl-1H-indazol-3-yl)-5H-pyrrolo[2,3-b]pyrazine-7-carboxylic acid pyridin-3-ylamide] | 186 nM | 
CC(C)(CO)NC(=O)c1c[nH]c2ncc(-n3ncc4cc(F)ccc43)nc12 [Example I-320, 2-(5-Fluoro-indazol-1-yl)-5H-pyrrolo[2,3-b]pyrazine-7-carboxylic acid (2-hydroxy-1,1-dimethyl-ethyl)-amide] | 56.7 nM | 
COc1ccc2c(c1)c(-c1cnc3[nH]cc(C(=O)N[C@@H]4CCOC[C@@H]4N)c3n1)nn2C [Example I-290, 2-(5-Methoxy-1-methyl-1H-indazol-3-yl)-5H-pyrrolo[2,3-b]pyrazine-7-carboxylic acid ((3R,4R)-3-amino-tetrahydro-pyran-4-yl)-amide] | 2130 nM | 
Cn1nc(-c2cnc3[nH]cc(C(=O)NC(C)(C)CCO)c3n2)c2ccc(F)cc21 [Example I-400, 2-(6-Fluoro-1-methyl-1H-indazol-3-yl)-5H-pyrrolo[2,3-b]pyrazine-7-carboxylic acid (3-hydroxy-1,1-dimethyl-propyl)-amide] | 8.57 nM | 
CCc1ccc2c(-c3cnc4[nH]cc(C(=O)NC(C)(C)C)c4n3)nn(C)c2c1 [Example I-367, 2-(6-Ethyl-1-methyl-1H-indazol-3-yl)-5H-pyrrolo[2,3-b]pyrazine-7-carboxylic acid tert-butylamide] | 4.78 nM | 
CN1CCN(C(=O)Cn2nc(-c3cnc4[nH]cc(C(=O)NC(C)(C)C)c4n3)c3cc(OC(F)F)ccc32)CC1 [Example I-353, 2-{5-Difluoromethoxy-1-[2-(4-methyl-piperazin-1-yl)-2-oxo-ethyl]-1H-indazol-3-yl}-5H-pyrrolo[2,3-b]pyrazine-7-carboxylic acid tert-butylamide] | 56.3 nM | 
Cn1nc(-c2cnc3[nH]cc(C(=O)NC(C)(C)C(F)(F)F)c3n2)c2ccc(Cl)cc21 [Example I-390, 2-(6-Chloro-1-methyl-1H-indazol-3-yl)-5H-pyrrolo[2,3-b]pyrazine-7-carboxylic acid (2,2,2-trifluoro-1,1-dimethyl-ethyl)-amide] | 42.4 nM | 
CONC(=O)c1c[nH]c2ncc(-c3nn(C)c4cc(F)ccc34)nc12 [Example I-361, 2-(6-Fluoro-1-methyl-1H-indazol-3-yl)-5H-pyrrolo[2,3-b]pyrazine-7-carboxylic acid methoxy-amide] | 214 nM | 
CC(C)(C)NC(=O)c1c[nH]c2ncc(-c3cccc4cn[nH]c34)nc12 [Example I-421, 2-(1H-Indazol-7-yl)-5H-pyrrolo[2,3-b]pyrazine-7-carboxylic acid tert-butylamide] | 163 nM | 

— patent publication US8658646B2, “Pyrrolopyrazine kinase inhibitors” (Hoffmann-LaRoche Inc., priority 2011, dated 2014)
